Assay results published in US20250099779A1, “DEVICE AND METHOD FOR REGULATING RELEASE OF ADENOSINE IN ORGANISM, AND USE” (WENZHOU VENTURA TECHNOLOGY CO., LTD., priority 2022, published 2025).
“Also recorded” adds a separate entry of the source.

Columns and labels:
Type in all cases: in vivo
C57BL/6J mice = assay: EEG/EMG sleep recording after adenosine microinjection into V1 visual cortex
Procedure: Adenosine was injected locally in the V1 cortex of mice to illustrate that the increase in the concentration of adenosine in the visual cortex could improve the sleep amount of mice. The administration cannulas were implanted in bilateral V1 brain regions of C57BL/6J mice, and the mice were placed in the sleep recording cage after about 10 days of surgical recovery. After 3 days of adaptation, the artificial cerebrospinal fluid (ACSF), adenosine of 1.5 nmol/side or adenosine 4.5 nmol/side was microinjected into the V1 visual cortex at the beginning of the dark phase on days 1, 4 and 7 (the administration order was random, and the injection volume was 2 μl/side), respectively; and the EEG/EMG of mice was recorded.

CD73-KO mice = assay: Nocturnal movement activity after 40 Hz light flicker
Procedure: Thus, we speculated that the 40 Hz light flicker stimulus can regulate sleep rhythm. We firstly exposed the wild-type C57BL/6J mice to light flickers at different frequencies in the last 30 minutes of the daytime phase (19:30-20:00), and then monitored the nocturnal movement activity of the mice, thereby reflecting the sleep-wake states of the mice indirectly. […] We then intraperitoneally injected CD73-KO mice with the […] transporter inhibitor Dipyridamole (Dipyr) at 15 mg/kg. […] Meanwhile, we also intraperitoneally injected CD73-KO mice with the adenosine Al receptor activity antagonist 8-Cyclopentyl-1,3-dipropyl-1H-purine-2,6(3H,7H)-dione (DPCPX) at 6 mg/kg.

[1] = test system: adenosine in the visual cortex (V1); assay: UPLC detection of total adenosine concentration in the visual cortex of mice; conditions: mice visual cortex V1, Dipyridamole 6 mg/kg intraperitoneal, 30 min before illumination
Procedure: The total concentration of adenosine in the visual cortex of mice was detected by ultra-high performance liquid chromatography (which is reported including 95% extracellular adenosine and 5% intracellular adenosine in literature). Dipyridamole (Dipyr) (a 6 mg/kg adenosine transporter inhibitor) dissolved in 0.5% methylcellulose was intraperitoneally injected 30 minutes before illumination, while the control group was given 0.5% methylcellulose. 30 minutes after the injection, the blank control group and the Dipyridamole group were illuminated for 30 minutes by the light flicker stimulus with the illuminance of 3000 lux, the duty ratio of 50% and the strobe of 40 Hz (referred to as “40 Hz light flicker stimulus” hereinafter). After illumination, the materials were sampled, weighed and rapidly frozen in liquid nitrogen immediately. After the sample processing, the peak value at about 2.0 was detected on machine with reference to the parameters of the standard substance, and the area under the curve at this moment was taken as the concentration of adenosine in the sample. Finally, the concentration of adenosine was obtained after checking the sample quality and calibrating.

[2] = 4.5 nmol/side microinjected into V1, mice

Nc1ncnc2c1ncn2[C@@H]1O[C@H](CO)[C@@H](O)[C@H]1O [adenosine]
sleep amount compared to the control group (ACSF) (C57BL/6J mice; 1.5 nmol/side microinjected into V1, mice): tendency to promote sleep but no significant difference | amount of the non-rapid eye movement sleep in the dark phase (C57BL/6J mice; [2]): 3 h | non-rapid eye movement sleep amount compared to the control group (ACSF) (C57BL/6J mice; [2]): significantly increases | total sleep amount of mice (C57BL/6J mice; adenosine injection into the visual cortex, 1.5 and 4.5 nmol/side): concentration-dependent increase

CCCn1c(=O)c2[nH]c(C3CCCC3)nc2n(CCC)c1=O [DPCPX, 8-Cyclopentyl-1,3-dipropyl-1H-purine-2,6(3H,7H)-dione]
movement inhibition effect caused by the 40 Hz light flicker (CD73-KO mice; 6 mg/kg intraperitoneal, 6 mg/kg): block the movement inhibition effect

OCCN(CCO)c1nc(N2CCCCC2)c2nc(N(CCO)CCO)nc(N3CCCCC3)c2n1 [Dipyridamole]
total concentration of intracellular and extracellular adenosine [1]: effectively inhibit | movement inhibition effect induced by the 40 Hz light flicker (CD73-KO mice; 15 mg/kg intraperitoneal, 15 mg/kg): blocks the movement inhibition effect; also recorded: completely disappeared
